The record followed here is patent US10316017B2, “COT modulators and methods of use thereof” (Gilead Sciences, Inc., priority 2015, dated 2019).

The subject of assay [1] is TNFα production in LPS-stimulated human monocytes. Description: Cot Monocyte TNFα Cell Based Assay. Particulars: Homo sapiens, Monocyte, read-out: EC50 TNF. The gist of the method: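 Cells at 5,000/well were pretreated with compound for 1 h at 37 °C (0.5% DMSO final), then stimulated with 50 pg/ml LPS for 4 h at 37 °C. Supernatant TNFα was measured by two-antibody TR-FRET after overnight room-temperature incubation; values are percent of control between unstimulated and stimulated wells.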

In assay [2] the target is T1, human Cot catalytic domain (30-397 amino acids) (Homo sapiens, UniProt P41279).
T1 construct: Purified recombinant human Cot catalytic domain (30-397 amino acids) was purchased from Cama Biosciences; purchased Cama Biosciences (so in the source)
Description: High Throughput Cot Biochemical Assay (KinEASE TR-FRET). Particulars: read-out: IC50 HTRF. In a few lines:
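Reaction of 5 nM recombinant human Cot catalytic domain (aa 30-397) with 1 μM STK3 peptide (XL665-labeled) and 400 μM ATP in 10 mM MOPS pH 7.0, 10 mM MgOAc, 1 mM DTT, 0.5 mg/mL BSA, 0.1% DMSO. Phosphopeptide detected by TR-FRET with europium anti-phospho antibody.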
(In general: In TR-FRET formats the signal depends on donor and acceptor labels being close together.)

[3] abbreviates: TNFα in LPS-stimulated human monocytes.
Where [4] appears, read: Cot biochemical HTRF (KinEASE TR-FRET) assay.
Where [5] appears, read: Cot KinEASE TR-FRET (HTRF) biochemical assay, 400 μM ATP.
[6] abbreviates: LPS-stimulated human monocytes, TNFα TR-FRET.
Where [7] appears, read: Cot KinEASE TR-FRET, 400 μM ATP.

For orientation: pEC50 means the negative decadic logarithm of the EC50, by convention in mol/L. The pIC50 is −log10 of the IC50, conventionally taken in molar units.

pEC50, pIC50: −log10 of the molar value. Like-named read-outs stand apart in the source and are kept apart here.

T1 sequence (P41279 30-397): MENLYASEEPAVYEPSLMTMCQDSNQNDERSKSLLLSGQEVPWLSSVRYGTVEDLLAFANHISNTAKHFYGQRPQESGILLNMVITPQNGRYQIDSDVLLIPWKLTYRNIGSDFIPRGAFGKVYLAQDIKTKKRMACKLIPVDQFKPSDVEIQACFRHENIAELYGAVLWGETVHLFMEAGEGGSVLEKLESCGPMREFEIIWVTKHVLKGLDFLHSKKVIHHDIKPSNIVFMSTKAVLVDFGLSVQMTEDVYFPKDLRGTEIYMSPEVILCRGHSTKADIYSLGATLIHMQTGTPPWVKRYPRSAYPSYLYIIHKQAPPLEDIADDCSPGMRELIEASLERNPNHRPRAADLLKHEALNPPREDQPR

Take `N#Cc1cnc2c(F)cc(N[C@@H](c3ccccc3)c3cn(C4CCNCC4)nn3)cc2c1Nc1ccc(F)c(Cl)c1` [Example 794, (S)-4-((3-chloro-4-fluorophenyl)amino)-8-fluoro-6-((phenyl(1-(piperidin-4-yl)-1H-1,2,3-triazol-4-yl)methyl)amino)quinoline-3-carbonitrile]: in assay [1] (setting [3]), the pEC50 was 6.36. In addition, the negative-log IC50 (pIC50) in assay [2] (setting [4]) is 8.40.

Take `N#Cc1cnc2c(Cl)cc(N[C@H](c3c[nH]nn3)c3ccccc3C(F)(F)F)cc2c1Nc1cnc(F)c(F)c1` [Example 502, (S)-6-(((1H-1,2,3-triazol-4-yl)(2-(trifluoromethyl)phenyl)methyl)amino)-8-chloro-4-((5,6-difluoropyridin-3-yl)amino)quinoline-3-carbonitrile]: the pEC50 in assay [1] (setting [3]) is 5.71. The pIC50 in assay [2] (setting [4]) was 6.80.

On to `Cn1cnnc1C(Nc1cc(Cl)c2ncc(C#N)c(Nc3ccc(F)c(Cl)c3)c2c1)c1ccc(F)cc1` (stereo not shown) [Example 854, 8-chloro-4-((3-chloro-4-fluorophenyl)amino)-6-(((4-fluorophenyl)(4-methyl-4H-1,2,4-triazol-3-yl)methyl)amino)quinoline-3-carbonitrile], for which the negative-log EC50 (pEC50) in assay [1] (setting [3]) was less than 5.00. In addition, in assay [2] (setting [4]), the pIC50 was 6.33.

On to `[2H][C@](Nc1cc(Cl)c2ncc(C#N)c(Nc3cccc(Cl)c3Cl)c2c1)(c1ccc(F)cc1)c1cn(C2CC2)nn1` [Example 206, (S)-8-chloro-6-(((1-cyclopropyl-1H-1,2,3-triazol-4-yl)(4-fluorophenyl)methyl-d)amino)-4-((2,3-dichlorophenyl)amino)quinoline-3-carbonitrile], for which, in assay [1] (setting [3]), the pEC50 was 6.26. In assay [2] (setting [5]), the pIC50 is 7.28.

For the compound `CC(C)(O)c1cccc([C@H](Nc2cc(Cl)c3ncc(C#N)c(Nc4ccc(F)c(Cl)c4)c3c2)c2cn(C3CCN(C(C)(C)C)CC3)nn2)c1` [Example 727, (S)-6-(((1-(1-(tert-butyl)piperidin-4-yl)-1H-1,2,3-triazol-4-yl)(3-(2-hydroxypropan-2-yl)phenyl)methyl)amino)-8-chloro-4-((3-chloro-4-fluorophenyl)amino)quinoline-3-carbonitrile], the pEC50 in assay [1] (setting [3]) is 6.75. For the same compound, in assay [2] (setting [4]), the negative logarithm of the IC50 (pIC50) is 8.52.

Turning to `CC[C@@H](Nc1c(C#N)cnc2c(Cl)cc(N[C@@H](c3cccc(Cl)c3)c3cn(C4CC4)nn3)cc12)c1ccccc1` [Example 273, 8-chloro-6-(((S)-(3-chlorophenyl)(1-cyclopropyl-1H-1,2,3-triazol-4-yl)methyl)amino)-4-(((R)-1-phenylpropyl)amino)quinoline-3-carbonitrile], the pEC50 in assay [1] (setting [3]) was 6.75. Besides, the negative-log IC50 (pIC50) in assay [2] (setting [5]) is 7.89.

Consider `C[Si](C)(C)Cn1cc([C@@H](Nc2cc(Cl)c3ncc(C#N)c(Nc4cnc(F)c(F)c4)c3c2)c2ccccc2F)nn1` [Example 431, (S)-8-chloro-4-((5,6-difluoropyridin-3-yl)amino)-6-(((2-fluorophenyl)(1-((trimethylsilyl)methyl)-1H-1,2,3-triazol-4-yl)methyl)amino)quinoline-3-carbonitrile], for which the pEC50 in assay [1] is 5.48. Further, the pIC50 in assay [2] (setting [4]) is 7.02.

For `[2H][C@](Nc1cc(Cl)c2ncc(C#N)c(N[C@H](c3ccccc3)[C@H]3C[C@@H]3C#N)c2c1)(c1ccc(F)cc1)c1cn(C2CC2)nn1` [Example 161, 8-chloro-4-(((S)-((1S,2S)-2-cyanocyclopropyl) (phenyl)methyl)amino)-6-(((S)-(1-cyclopropyl-1H-1,2,3-triazol-4-yl)(4-fluorophenyl)methyl-d)amino) quinoline-3-carbonitrile], in assay [1] (setting [3]), the pEC50 was less than 5.00. Also, the pIC50 in assay [2] (setting [5]) was 6.03.

For `N#CCn1cc([C@@H](Nc2cc(Cl)c3ncc(C#N)c(Nc4cnc(F)c(F)c4)c3c2)c2ccc(F)cc2)nn1` [Example 410, (S)-8-chloro-6-(((1-(cyanomethyl)-1H-1,2,3-triazol-4-yl)(4-fluorophenyl)methyl)amino)-4-((5,6-difluoropyridin-3-yl)amino)quinoline-3-carbonitrile], the pEC50 in assay [1] (setting [3]) is 6.14. Besides, the pIC50 in assay [2] (setting [4]) was 7.52.

As for `COCCN1CCC(n2cc([C@@H](Nc3cc(Cl)c4ncc(C#N)c(Nc5ccc(F)c(Cl)c5)c4c3)c3ccc(F)cc3)nn2)CC1` [Compound 35], the pEC50 in assay [1] (setting [3]) is 6.64. Moreover, the pIC50 in assay [2] (setting [5]) is 7.82.

`[2H]C(Nc1cc(Cl)c2ncc(C#N)c(N[C@H](CCN3CCOCC3)c3ccccc3)c2c1)(c1ccc(F)cc1)c1cn(C2CC2)nn1` (stereo partly shown) [Compound 34]: the pEC50 in assay [1] (setting [3]) was 6.72. Also, in assay [2] (setting [5]), the pIC50 was 7.89.

Regarding `[2H][C@](Nc1cc(Cl)c2ncc(C#N)c(NC3C4CC5CC(C4)CC3C5)c2c1)(c1ccc(F)cc1)c1cn(C2CC2)nn1` (stereo partly drawn) [Example 246, 4-(((1S,3S,5S,7S)-adamantan-2-yl)amino)-8-chloro-6-(((S)-(1-cyclopropyl-1H-1,2,3-triazol-4-yl)(4-fluorophenyl)methyl-d)amino)quinoline-3-carbonitrile], in assay [1] (setting [3]), the pEC50 was 6.31. For the same compound, in assay [2] (setting [5]), the pIC50 was 7.72.

As for `CN(C)C(=O)c1cccc([C@H](Nc2cc(Cl)c3ncc(C#N)c(Nc4cccc(Cl)c4F)c3c2)c2c[nH]nn2)c1` [Example 606, (S)-3-(((8-chloro-4-((3-chloro-2-fluorophenyl)amino)-3-cyanoquinolin-6-yl)amino)(1H-1,2,3-triazol-4-yl)methyl)-N,N-dimethylbenzamide], the pEC50 in assay [1] (setting [3]) was 6.46. In addition, in assay [2] (setting [4]), the pIC50 is 8.70.

As to `CC(C(F)F)n1cc([C@@H](Nc2cc(Cl)c3ncc(C#N)c(Nc4cnc(F)c(F)c4)c3c2)c2ccc(F)cc2)nn1` (stereo partly drawn) [Example 407, 8-chloro-6-(((1S)-(1-(1,1-difluoropropan-2-yl)-1H-1,2,3-triazol-4-yl)(4-fluorophenyl)methyl)amino)-4-((5,6-difluoropyridin-3-yl)amino)quinoline-3-carbonitrile], the pEC50 in assay [1] (setting [3]) is 5.82. For the same compound, the pIC50 in assay [2] (setting [4]) was 7.33.

For `COC(=O)c1cc([C@H](Nc2cc(Cl)c3ncc(C#N)c(NCC(C)(C)C)c3c2)c2cn(C3(C(F)(F)F)CC3)nn2)ccc1F` [Example 1088, methyl (S)-5-(((8-chloro-3-cyano-4-(neopentylamino)quinolin-6-yl)amino)(1-(1-(trifluoromethyl)cyclopropyl)-1H-1,2,3-triazol-4-yl)methyl)-2-fluorobenzoate], the pEC50 in assay [1] (setting [6]) is 6.03. In assay [2] (setting [7]), the pIC50 is 7.66.

Take `CC[C@@H](Nc1c(C#N)cnc2c(Cl)cc(N[C@H](c3cn(CCF)nn3)c3ccccc3F)cc12)c1ccccc1` [Example 446, 8-chloro-6-(((S)-(1-(2-fluoroethyl)-1H-1,2,3-triazol-4-yl)(2-fluorophenyl)methyl)amino)-4-(((R)-1-phenylpropyl)amino) quinoline-3-carbonitrile]: the pEC50 in assay [1] (setting [3]) was 6.47. The pIC50 in assay [2] (setting [4]) was 7.96.

For `CC(C)(C)CNc1c(C#N)cnc2c(Cl)cc(N[C@@H](c3ccc(F)cc3)c3cn(C4(C(N)=O)CCC4)nn3)cc12` [Example 992, (S)-1-(4-(((8-chloro-3-cyano-4-(neopentylamino)quinolin-6-yl)amino)(4-fluorophenyl)methyl)-1H-1,2,3-triazol-1-yl) cyclobutane-1-carboxamide], the pEC50 in assay [1] (setting [6]) is 7.12. The pIC50 in assay [2] (setting [7]) was 8.30.

As for `[2H][C@@](Nc1cc(C(C)=O)c2ncc(C#N)c(NCC(C)(C)C)c2c1)(c1cn(C2CC2)nn1)c1ccccc1Cl` [Compound 14], the pEC50 in assay [1] (setting [3]) was 6.53. Moreover, the pIC50 in assay [2] (setting [5]) is 7.89.

Take `[2H][C@](Nc1cc(Cl)c2ncc(C#N)c(NC[Si](C)(C)C)c2c1)(c1ccc(F)cc1)c1cn(C2CC2)nn1` [Example 262, (S)-8-chloro-6-(((1-cyclopropyl-1H-1,2,3-triazol-4-yl)(4-fluorophenyl)methyl-d)amino)-4-(((trimethylsilyl)methyl)amino) quinoline-3-carbonitrile]: the negative-log EC50 (pEC50) in assay [1] is 6.59. Besides, the pIC50 in assay [2] (setting [5]) is 8.00.

For the compound `Cc1cc(F)ccc1C(Nc1cc(Cl)c2ncc(C#N)c(Nc3ccc(F)c(Cl)c3)c2c1)c1cn(C2CCNCC2)nn1` (stereo not shown) [Example 884, 8-chloro-4-((3-chloro-4-fluorophenyl)amino)-6-(((4-fluoro-2-methylphenyl) (1-(piperidin-4-yl)-1H-1,2,3-triazol-4-yl)methyl)amino)quinoline-3-carbonitrile], the pEC50 in assay [1] (setting [3]) was 6.33. In addition, the pIC50 in assay [2] (setting [4]) is 7.96.

For the compound `[2H][C@](Nc1cc(C#N)c2ncc(C#N)c(NCC(C)(C)C)c2c1)(c1ccc(F)cc1)c1cn(C)nn1` [Example 209, (S)-6-(((4-fluorophenyl)(1-methyl-1H-1,2,3-triazol-4-yl)methyl-d)amino)-4-(neopentylamino) quinoline-3,8-dicarbonitrile], in assay [1] (setting [3]), the pEC50 was 7.08. For the same compound, the pIC50 in assay [2] (setting [5]) is 8.52.

In the case of `[2H][C@](Nc1cc(Cl)c2ncc(C#N)c(NC3CCCC3(C)C)c2c1)(c1ccc(F)cc1)c1cn(C2CC2)nn1` (stereo partly shown) [Example 189], the negative-log EC50 (pEC50) in assay [1] (setting [3]) was 6.80. For the same compound, the pIC50 in assay [2] (setting [5]) is 8.00.

Turning to `N#Cc1cnc2c(Cl)cc(N[C@@H](c3ccccc3)c3cn(CCN4CCOCC4)nn3)cc2c1Nc1ccc(F)c(Cl)c1` [Example 737, (S)-8-chloro-4-((3-chloro-4-fluorophenyl)amino)-6-(((1-(2-morpholinoethyl)-1H-1,2,3-triazol-4-yl)(phenyl)methyl)amino)quinoline-3-carbonitrile], the pEC50 in assay [1] (setting [3]) was 6.39. Moreover, in assay [2] (setting [4]), the pIC50 is 7.68.
